Data: article PMC3836617 (Pharmaceutics, 2013)
Values joined by “and” are separate entries in the source; they are usually repeats but may differ in a detail not shown here. Equal entries are not always repeated. Where two headings read alike, the source gives them in different places.

Assays:
[1] = Hydrolysis in rat liver microsomes; type: in vitro ADME; details: pH 7.4; for Vmax: liver microsomes; for Km: liver microsomes 20 μg/mL for PNPA, 10 μg/mL for PNPB
Procedure: (§1) The excised liver, kidney, and testis were washed with ice-cold 0.15 M KCl, and finely minced using scissors. Minced tissues were homogenized with 3 volumes of 50 mM HEPES buffer (pH 7.4) containing 0.15 M KCl in a Potter–Elvehjem glass homogenizer equipped with a Teflon pestle under ice-cold conditions. Homogenates (25% wet w/v) were centrifuged at 9000g for 20 min at 4 °C, to give the S9 fraction. S9 fraction was further centrifuged at 100,000g for 1 h at 4 °C. The resulting pellets were resuspended in 50 mM HEPES buffer (pH 7.4) containing 0.15 M KCl to prepare the microsomal fraction. Protein concentrations were determined by the method of Bradford using BSA as standard. S9 and the microsomal fraction were stored at −80 °C until use.
(§2) Hydrolysis of PNPA, PNPB, and caproyl-PL were performed in S9 and microsomal fractions of rat liver, testis, kidney and skin. Tissue samples were diluted with 50 mM HEPES (pH 7.4) buffer at appropriate protein concentrations and preincubated for 5 min at 37 °C. The hydrolysis reaction was initiated by the addition of test compounds dissolved in dimethyl sulfoxide (DMSO). The final concentration of DMSO was less than 0.5%, which has no effect on hydrolytic activity. The rate of hydrolysis of PNPA and PNPB (final concentrations 15–500 μM) was determined by the initial linear increase in absorbance of p-nitrophenol at 405 nm (V-530, JASCO Co., Tokyo, Japan).

[2] = Hydrolysis in rat skin S9 fraction; type: in vitro ADME; details: for Hydrolysis in skin S9 relative to liver microsomes (slower) / Vmax in skin S9 relative to liver microsomes (smaller) / Vmax/Km in skin S9 relative to liver microsomes (smaller): skin S9 vs liver microsomes
Procedure: After hair was carefully clipped and shaved, rats were sacrificed by exsanguination under ether anesthesia. Abdominal and dorsal skin was removed using a scalpel and dissection scissors. A few pieces of skin were stored in liquid nitrogen for extraction of total RNA. The skin was minced, mixed with five volumes of ice-cold 4-(2-hydroxyethyl)-1-piperazineethanesulfonic acid (HEPES) buffer (50 mM, pH 7.4) containing 0.15 M KCl, and homogenized using a Polytron (Kinematica, Lucerne, Switzerland) on ice. Whole homogenate was filtered through a funnel containing buffer-soaked cotton wool. After centrifugation of the skin homogenate at 9000g for 20 min at 4 °C, the supernatant fraction (S9) was obtained. Protein content was determined by the method described by Bradford using bovine serum albumin (BSA) as standard. The skin S9 was stored at −80 °C until use.
as §2
For the hydrolysis of caproyl-PL, the reaction was terminated by addition of 5 mL ethylacetate. After extraction of PL, as previously described, stereoselective determination was carried out using high-performance liquid chromatography (HPLC).

[3] = Hydrolysis in rat testis microsomes; type: in vitro ADME; details: pH 7.4; for Km: testis microsomes 10 μg/mL for PNPA, 5 μg/mL for PNPB; for Vmax: testis microsomes
Procedure: as §1, §2

[4] = Hydrolysis in rat kidney microsomes; type: in vitro ADME; details: pH 7.4; for Vmax: kidney microsomes; for Km: kidney microsomes 10 μg/mL
Procedure: as §1, §2

[5] = for Permeated amount after 12 h: full-thickness skin preincubated with 2 mM BNPP 1 h
Procedure: (§3) Fresh excised abdominal skin was used for these experiments. To strip skin, stratum corneum was removed by 20 successive strippings using cellophane adhesive tape (Nichiban K.K., Japan) according to conventional methods. The excised skin was mounted between half-cells with the dermal side in contact with receptor fluid (pH 6.8 phosphate-buffered saline (PBS) with 3% BSA). Receptor fluid flow rate was 5 mL/h. Two milliliters of drug suspension (drug amount = twice the amount required for saturation) in pH 4.0 acetate buffer was added to the donor chamber.
In an inhibition study for CES, skin mounted between the half-cells was preincubated with the dermal side in contact with 2 mM BNPP (dissolved in pH 6.8 PBS containing 3% BSA) for 1 h.
(§4) The in vitro permeation parameters were calculated from the penetration data using the following equations: Js = (KmDC)/δ = KpC and τ = δ^2/6D, where Js is steady state flux, Km is the solvent membrane partition coefficient of drug, D is diffusion coefficient, C is drug concentration in donor chamber, δ is thickness of rat skin, Kp is the permeability coefficient of drug, and τ represents lag time.

[6] = Nonenzymatic hydrolysis of caproyl-PL to PL in buffer; type: physicochemical
Procedure: Hydrolysis was greater under basic buffer conditions […]. […] The hydrolysis of caproyl-PL was <0.05% during the sampling period (1 h) at pH 6.8 in PBS containing 3% BSA.

[7] = cited from earlier work
[8] = for Permeated amount after 12 h: labelled species found in receptor fluid
Procedure: as §3, §4

esterases of rat skin S9 = experiment: Native PAGE esterase activity staining of rat skin S9 with 1-naphthylacetate; type: biochemical; details: native PAGE stained with 1-naphthylacetate
Procedure: Polyacrylamide gel electrophoresis (PAGE) was performed as described by Mentlein et al. [15]. Polyacrylamide gels (7.5% w/w), containing 1% (w/v) nonidet P-40 for solubilization of proteins, were used for the separation of native enzymes. After electrophoresis of tissue samples (10–40 μg protein), the gels were stained for esterase activity with 1-naphthylacetate through coupling to liberated 1-naphthol with Fast Red TR-salt.
All proteins with hydrolytic activity can be visualized by this technique. […] In order to compare skin esterase with tissue-specific CES isozymes, the microsomal fraction of each rat organ was applied to a native PAGE gel.

[9] = hydrolysis, skin S9 300 μg/mL, 50 mM HEPES pH 7.4
[10] = after application of caproyl-PL, labelled species
[11] = after application of caproyl-PL, labelled species, full-thickness skin with BNPP
[12] = after application of caproyl-PL, total, full-thickness skin with BNPP
[13] = after application of caproyl-PL, labelled species, stripped skin
[14] = after application of caproyl-PL, total, stripped skin
[15] = after application of caproyl-PL, full-thickness skin, n = 6
[16] = after application of caproyl-PL, labelled species, full-thickness skin
[17] = after application of caproyl-PL, total of caproyl-PL and PL, full-thickness skin
[18] = caproyl-PL applied to full-thickness skin
[19] = after application of PL, full-thickness skin with BNPP
[20] = after application of PL, stripped skin
[21] = after application of PL, full-thickness skin

For `CC(=O)Oc1ccc([N+](=O)[O-])cc1` [PNPA, p-nitrophenylacetate], the Vmax [1] was 3,570 ± 810 nmol/min/mg protein, the Km ([1]; rat) was 57 ± 18.2 µM and the Vmax [2, 9] was 188 ± 30.3 nmol/min/mg protein. For the same compound, the Km ([2]; rat, skin S9 fraction, hydrolysis, skin S9 300 μg/mL, 50 mM HEPES pH 7.4, 37 °C, mean ± S.D. (n = 3/4), read-out: Km) was 55.5 ± 8.18 µM, the “Hydrolysis in skin S9 relative to liver microsomes (slower)” value [2] was “around 20 fold” and the “Vmax in skin S9 relative to liver microsomes (smaller)” value [2] was 19 fold. For the same compound, the “Vmax/Km in skin S9 relative to liver microsomes (smaller)” value [2] was 21 fold, the Km ([3]; male, rat) was 34.6 ± 1.27 µM and the Vmax [3] was 1,606 ± 333 nmol/min/mg protein. The Vmax [4] was 2,432 ± 497 nmol/min/mg protein and the Km ([4]; rat) was 268 ± 83.8 µM.

In the case of `CCCC(=O)Oc1ccc([N+](=O)[O-])cc1` [PNPB, p-nitrophenylbutyrate], the Km [1] is reported as 37.1 ± 9.42 µM, the Vmax [1] is reported as 4,220 ± 521 nmol/min/mg protein and the Vmax [2, 9] is reported as 460 ± 127 nmol/min/mg protein. The Km ([2]; hydrolysis, skin S9 300 μg/mL, 50 mM HEPES pH 7.4, 37 °C, mean ± S.D. (n = 3/4), read-out: Km) was 97.1 ± 30.2 µM, the “Hydrolysis in skin S9 relative to liver microsomes (slower)” value [2] was “around 20 fold” and the “Vmax in skin S9 relative to liver microsomes (smaller)” value [2] was 9 fold. The “Vmax/Km in skin S9 relative to liver microsomes (smaller)” value [2] was 24 fold, the Km [3] was 63.4 ± 13.9 µM and the Vmax [3] was 2,978 ± 398 nmol/min/mg protein. It also gave a Km [4] of 97 ± 16.6 µM and a Vmax [4] of 994 ± 286 nmol/min/mg protein.

For `CCCCCC(=O)OC(CNC(C)C)COc1cccc2ccccc12.Cl` (stereo not drawn) [Caproyl-PL, O-caproyl-PL hydrochloride], the “Permeated amount after 12 h” value [5, 10] was 3.9 ± 3.4 nmol, the Lag time [5, 11] was 8.3 ± 1.2 h and the “Skin concentration at 12 h” value [5, 11] was 2,100 ± 220 nmol/g tissue. The Steady state flux [5, 11] was 0.83 ± 0.65 nmol/h, the “Lag time, Total” value [5, 12] was 6.4 ± 0.92 h and the “Permeated amount after 12 h, Total” value [5, 12] was 25 ± 21 nmol. For the same compound, the “Skin concentration at 12 h, Total” value [5, 12] was 2,200 ± 230 nmol/g tissue, the “Steady state flux, Total” value [5, 12] was 4.1 ± 3.1 nmol/h and the “Permeated amount, steady state flux and Kp value of intact caproyl-PL, increase by treatment with BNPP” value ([5]; full-thickness skin with vs without BNPP) was 2 fold. The Vmax ([2]; hydrolysis of caproyl-PL in rat skin S9) was 9.24 ± 2.95 nmol/min/mg S9 protein, the Km ([2]; hydrolysis of caproyl-PL in rat skin S9, read-out: Km value) was 19.7 ± 5.36 µM and the “Hydrolysis in skin S9 relative to liver microsomes (slower)” value [2] was 20 fold. The “Nonenzymatic hydrolysis of caproyl-PL to PL” value ([6]; in 12 h, pH 4.0 acetate buffer) was less than 0.1%, the “Nonenzymatic hydrolysis of caproyl-PL” value ([6]; sampling period 1 h, pH 6.8 PBS containing 3% BSA) was less than 0.05% and the “log PC” value ([7]; between 1-octanol and pH 4.0 phosphate buffer, method and reference not given) was 2.3. The pKa ([7]; stated in discussion, method and reference not given) was 9.1, the “Constant concentration in donor compartment (suspension)” value ([7]; suspension in pH 4.0 acetate buffer) was 6.4 mM and the “Steady-state flux and Kp values of intact caproyl-PL in stripped skin relative to full-thickness skin (greater)” value (after application of caproyl-PL) was 6 fold. The Lag time [13] was 4.7 ± 1.7 h, the “Permeated amount after 12 h” value [13] was 12 ± 13 nmol and the “Skin concentration at 12 h” value [13] was 3,200 ± 580 nmol/g tissue. For the same compound, the Steady state flux [13] was 2.4 ± 0.98 nmol/h, the “Skin concentration at 12 h” value (after application of caproyl-PL, labelled species, stripped skin, listed as caproyl-PL) was 3200 ± 580 nmol/g tissue and the “Permeated amount after 12 h, Total” value (after application of caproyl-PL, total of caproyl-PL and PL, stripped skin) was 200 ± 50 nmol. The “Lag time, Total” value [14] was 3.6 ± 0.43 h, the “Skin concentration at 12 h, Total” value [14] was 4,100 ± 600 nmol/g tissue and the “Steady state flux, Total” value [14] was 23 ± 5.5 nmol/h. For the same compound, the “Permeation clearance from viable skin to receptor fluid” value (calculated from steady-state flux and cutaneous concentration in stripped skin) was 0.75 mg tissue/h, the “Concentration of caproyl-PL in stripped skin relative to Km value (higher)” value (vs Km in skin S9) was 160 fold and the “Skin concentration of caproyl-PL relative to PL (higher)” value ([8]; 12 h after dosing caproyl-PL, full-thickness skin) was 3.5 fold. The “Permeated amount after 12 h” value [8, 15] was 1.7 ± 1.4 nmol, the Lag time [8, 16] was 7.0 ± 0.78 h and the “Skin concentration at 12 h” value [8, 16] was 1,900 ± 630 nmol/g tissue. The Steady state flux [8, 16] was 0.40 ± 0.28 nmol/h, the “Skin concentration at 12 h” value ([8]; after application of caproyl-PL, labelled species, full-thickness skin, listed as caproyl-PL) was 1900 ± 630 nmol/g tissue and the “Lag time, Total” value [8, 17] was 4.9 h and 4.9 ± 1.1 h. The “Permeated amount after 12 h, Total” value [8, 17] was 140 ± 33 nmol, the “Skin concentration at 12 h, Total” value [8, 17] was 2,400 ± 780 nmol/g tissue and the “Steady state flux, Total” value [8, 17] was 20 ± 6.1 nmol/h. The “Predicted concentration of caproyl-PL in viable epidermis and dermis” value ([8]; after application to full-thickness skin, estimated from flux and permeation clearance) was “about 500 nmol/g tissue”, the “Dose retained in the stratum corneum” value [8, 18] was 75% and the “Dose transferred into viable skin” value [8, 18] was 25%. For the same compound, the “Predicted concentration in viable epidermis and dermis relative to Km value (higher)” value ([8]; full-thickness skin) was 25 fold.

In the case of `CCN(CC)C(C)CN1c2ccccc2Sc2ccccc21` (stereo not drawn) [ethopropazine], the “Inhibition of formation of esterase bands of skin S9” value (esterases of rat skin S9) is reported as “not inhibited”.

With `O=[N+]([O-])c1ccc(OP(=O)(O)Oc2ccc([N+](=O)[O-])cc2)cc1` [BNPP, bis-p-nitrophenyl phosphate] the “PL conversion from caproyl-PL after treatment with BNPP” value ([5]; 2 mM BNPP on receiver side for 1 h, full-thickness skin) was “markedly decreased”.

With `CC(C)NCC(O)COc1cccc2ccccc12` (stereo not drawn) [PL, propranolol] the “Amount permeated after 12 h” value [5, 19] was 2,600 ± 990 nmol, the Lag time [5, 19] was 0.84 ± 0.24 h and the “Skin concentration at 12 h” value [5, 19] was 9,900 ± 590 nmol/g tissue. The Steady state flux [5, 19] was 240 ± 87 nmol/h, the “Permeated amount after 12 h” value [5, 10] was 21 ± 18 nmol and the Lag time [5, 11] was 6.3 ± 0.93 h. For the same compound, the “Skin concentration at 12 h” value [5, 11] was 130 ± 7.7 nmol/g tissue, the Steady state flux [5, 11] was 3.5 ± 2.6 nmol/h and the “Amount permeated after 12 h” value [20] was 17,000 ± 3,600 nmol. The Lag time [20] was 1.4 ± 0.36 h, the “Skin concentration at 12 h” value [20] was 6,900 ± 3,700 nmol/g tissue and the Lag time [13] was 3.6 ± 0.38 h. For the same compound, the “Permeated amount after 12 h” value [13] was 190 ± 55 nmol, the “Skin concentration at 12 h” value [13] was 870 ± 44 nmol/g tissue and the Steady state flux [13] was 22 ± 6.4 nmol/h. For the same compound, the Lag time [8, 21] was 1.5 ± 0.56 h, the “Skin concentration at 12 h” value [8, 21] was 9,400 ± 380 nmol/g tissue and the Steady state flux [8, 21] was 240 ± 94 nmol/h. The “Amount permeated after 12 h” value ([8]; after application of PL, full-thickness skin, n = 6) was 2,600 ± 970 nmol, the “Permeated amount after 12 h” value [8, 15] was 140 ± 35 nmol and the Lag time [8, 16] was 4.9 ± 1.1 h. For the same compound, the “Skin concentration at 12 h” value [8, 16] was 550 ± 120 nmol/g tissue and the Steady state flux [8, 16] was 20 ± 6.2 nmol/h.
